According to US8658690B2, “Use of novel compounds from fruiting body of Antrodia camphorata for treating an inflammatory disorder” (Well Shine Biotechnology Development Co., Ltd., priority 2008, dated 2014):
Values after ≈ are worked out from the molar mass of the structure shown.

What was measured:
Format in all cases: cell-based, murine
[1] = test system: LPS-stimulated RAW264.7 macrophage cells; test: Cell viability by MTT method in LPS-stimulated RAW264.7 cells; conditions: 30 min pretreatment then 50 ng/mL LPS 48 hours
Method: (§1) IL-6, a proinflammatory cytokine which is a useful marker of infection, is secreted by macrophages in many infectious and inflammatory states, including cardiac surgery, cardiogenic shock, coronary bypass and bacteria sepsis (Kantar, M. et al., Eur. J. Pediatr. 2000, 159, 156-157). Serum concentration of IL-6 has been reported to correlate with disease severity (Pathan, N. et al., Lancet 2004, 363, 203-209). The productions of IL-6 from LPS-stimulated macrophages were measured to evaluate the anti-inflammation effect of the compounds. The cells were pretreated with compounds isolated from A. camphorata for 30 min and then stimulated with 50 ng/mL LPS for 48 hours. The supernatants were collected for TNF-α and IL-6 assay, and the cells were collected for viability analysis by MTT method.

[2] = test system: RAW264.7 macrophage cells; test: Cell viability by MTT method in RAW264.7 cells treated with compounds for 48 hours (no LPS); conditions: RAW264.7, no LPS; for Cell viability (%): mean ± SD
Method: (§2) To evaluate the immunomodulatory effects of these new compounds, the in vitro production of cytokines in RA W264.7 cells were treated without or with the compounds of the invention at different concentrations for 48 hours. The supernatants were collected for TNF-α assay, and cells were collected for viability analysis by MTT method.

IL-6 = IL-6 secretion in LPS-stimulated RAW264.7 cells, ELISA; conditions: for IL-6 (pg/mL) secretion: LPS control 238 ± 86; for IC50: Mus musculus, LPS-stimulated RAW264.7, 50 ng/mL LPS 48 hours, highest tested concentration 10 μg/mL, read-out: IC50 of IL-6 production
Method: (§3) The cytokine levels in culture supernatants were measured by sandwich ELISA methods as described by Chen and Lin (Chen, M. L. et al., Int. Arch. Allergy Immunol. 2007, 143, 21-30). More specifically, the anti-cytokine antibodies (PharMingen, San Diego, Calif.) were coated in the 96-well plates (Nunc, Roskilde, Denmark) after overnight incubation at 4° C. and having been blocked with 1% BSA PBS buffer for 30 min. The samples and standards (recombinant mouse cytokines, PharMingen) were added to the 96-well plates for 2 hours incubation. The biotin-conjugated antibodies (biotinylated rat anti-mouse cytokine monoclonal antibodies, PharMingen) were added and incubated. After washing, streptavidin-conjugated peroxidase was added for 1 hour. The substrates, 2,2′-azino-bis-3-ethyl-benzthiazoline-6-sulfonic acid (ABTS, Sigma), were added to each well for 20 min. The plates were read in a microplate autoreader (Microplate autoreader; Bio-Tek Instruments, Winooski, Vt.) at 405 nm.
as §1

TNF-α [3] = test: Spontaneous TNF-α secretion by RAW264.7 cells, sandwich ELISA of supernatants; conditions: 48 hours; for TNF-α (pg/mL) secretion: spontaneous, control 88 ± 45
Method: as §3, §2

TNF-α [4] = test: TNF-α secretion in LPS-stimulated RAW264.7 cells, ELISA; conditions: 50 ng/mL LPS 48 hours, LPS control 3.81 ± 0.93
Method: as §3, §1

[5] = 0.5 μg/mL, 50 ng/mL LPS 48 hours
[6] = 10 μg/mL, 50 ng/mL LPS 48 hours

SMILES | Cell viability (%) ([1]; 0.5 μg/mL) | Cell viability (%) ([1]; 1 μg/mL) | Cell viability (%) ([1]; 5 μg/mL) | Cell viability (%) ([1]; 10 μg/mL) | Cell viability (%) ([2]; 0.5 μg/mL) | Cell viability (%) ([2]; 1 μg/mL) | Cell viability (%) ([2]; 2 μg/mL) | Cell viability (%) ([2]; 5 μg/mL) | Cell viability (%) ([2]; 10 μg/mL) | IL-6 (pg/mL) secretion (IL-6; [5]) | IL-6 (pg/mL) secretion (IL-6; 1 μg/mL, 50 ng/mL LPS 48 hours) | IL-6 (pg/mL) secretion (IL-6; 5 μg/mL, 50 ng/mL LPS 48 hours) | IL-6 (pg/mL) secretion (IL-6; [6]) | IC50 (IL-6) | TNF-α (pg/mL) secretion (TNF-α [3]; 0.5 μg/mL) | TNF-α (pg/mL) secretion (TNF-α [3]; 1 μg/mL) | TNF-α (pg/mL) secretion (TNF-α [3]; 2 μg/mL) | TNF-α (pg/mL) secretion (TNF-α [3]; 5 μg/mL) | TNF-α (pg/mL) secretion (TNF-α [3]; 10 μg/mL) | TNF-α (ng/mL) secretion (TNF-α [4]; 0.5 μg/mL) | also measured
CC(C)=CCOc1ccc([C@@H]2C(=O)NC(=O)[C@H]2CC(C)C)cc1 (relative stereo) [Compound 1, trans-3-Isobutyl-4-[4-(3-methyl-2-butenyloxy)phenyl]pyrrolidine-2,5-dione] | 105 ± 3% | 106 ± 4% | 105 ± 3% | 102 ± 4% | 103 ± 2% | 101 ± 3% | 108 ± 6% | 100 ± 10% | 99 ± 7% | 213 ± 88 pg/mL | 211 ± 99 pg/mL | 144 ± 64 pg/mL | 103 ± 61 pg/mL | 10 µg/mL (≈ 31.7 µM) | 117 ± 31 pg/mL | 145 ± 44 pg/mL | 183 ± 89 pg/mL | 212 ± 60 pg/mL | 188 ± 41 pg/mL | 3.69 ± 0.39 ng/mL | effect on cell viability (in words) [2]: without affecting cell viability; IL-6 production in LPS-stimulated cells (in words) (IL-6; 50 ng/mL LPS 48 hours): significantly decreased; spontaneous TNF-α secretion by RAW264.7 cells (in words) (TNF-α [3]; 0.5˜5 μg/mL): significantly increased; TNF-α (ng/mL) secretion (TNF-α [4]; 1 μg/mL): 3.92 ± 0.39 ng/mL; TNF-α (ng/mL) secretion (TNF-α [4]; 5 μg/mL): 3.68 ± 0.25 ng/mL; TNF-α (ng/mL) secretion (TNF-α [4]; 10 μg/mL): 3.65 ± 0.17 ng/mL
CC(C)C[C@@H]1C(=O)N(O)C(=O)[C@H]1c1ccc(O)cc1 (relative stereo) [Compound 2, trans-1-Hydroxy-3-(4-hydroxyphenyl)-4-isobutylpyrrolidine-2,5-dione] | 110 ± 5 % | 111 ± 6 % | 111 ± 8 % | 109 ± 2 % | 106 ± 7% | 100 ± 5% | 100 ± 5% | 94 ± 6% | 90 ± 4 % | 216 ± 102 pg/mL | 224 ± 110 pg/mL | 210 ± 96 pg/mL | 191 ± 68 pg/mL | 54 µg/mL (≈ 205 µM) | 108 ± 28 pg/mL | 97 ± 13 pg/mL | 105 ± 23 pg/mL | 96 ± 8 pg/mL | 128 ± 70 pg/mL | 3.34 ± 0.58 ng/mL | TNF-α (ng/mL) secretion (TNF-α [4]; 1 μg/mL): 4.04 ± 0.46 ng/mL; TNF-α (ng/mL) secretion (TNF-α [4]; 5 μg/mL): 4.76 ± 0.65 ng/mL; TNF-α (ng/mL) secretion (TNF-α [4]; 10 μg/mL): 3.66 ± 0.67 ng/mL
CC(C)C[C@H]1C(=O)OC(=O)[C@H]1c1ccc(O)cc1 (relative stereo) [Compound 3, cis-3-(4-Hydroxyphenyl)-4-isobutyldihydrofuran-2,5-dione] | 105 ± 6% | 104 ± 6% | 99 ± 3% | 91 ± 4 % | 91 ± 9% | 87 ± 8% | 80 ± 9 % | 72± 11 % | 67 ± 15 % | 214 ± 82 pg/mL | 234 ± 109 pg/mL | 185 ± 76 pg/mL | 147 ± 53 pg/mL | 17 µg/mL (≈ 68.5 µM) | 55 ± 2 pg/mL | 74 ± 7 pg/mL | 68 ± 7 pg/mL | 68 ± 26 pg/mL | 77 ± 35 pg/mL | 3.17 ± 0.70 ng/mL | TNF-α (ng/mL) secretion (TNF-α [4]; 1 μg/mL): 3.64 ± 0.84 ng/mL; TNF-α (ng/mL) secretion (TNF-α [4]; 5 μg/mL): 3.88 ± 0.37 ng/mL; TNF-α (ng/mL) secretion (TNF-α [4]; 10 μg/mL): 3.90 ± 0.10 ng/mL
CC(C)CC1=C(c2ccc(O)cc2)C(=O)NC1=O [Compound 4, 3-(4-Hydroxyphenyl)-4-isobutyl-1H-pyrrole-2,5-dione] | 105 ± 6% | 103 ± 5% | 97 ± 5% | 92 ± 8% | 97 ± 13% | 99 ± 4% | 97 ± 5% | 94 ± 7% | 81 ± 8 % | 194 ± 81 pg/mL | 257 ± 40 pg/mL | 195 ± 83 pg/mL | 169 ± 63 pg/mL | 18 µg/mL (≈ 73.4 µM) | 91 ± 38 pg/mL | 83 ± 22 pg/mL | 105 ± 13 pg/mL | 118 ± 23 pg/mL | 104 ± 25 pg/mL | 2.98 ± 0.24 ng/mL | TNF-α (ng/mL) secretion (TNF-α [4]; 1 μg/mL): 3.22 ± 0.35 ng/mL; TNF-α (ng/mL) secretion (TNF-α [4]; 5 μg/mL): 3.72 ± 0.23 ng/mL; TNF-α (ng/mL) secretion (TNF-α [4]; 10 μg/mL): 3.12 ± 0.61 ng/mL
CC(C)CC1=C(c2ccc(O)cc2)C(=O)OC1=O [Compound 5, 3-(4-Hydroxyphenyl)-4-isobutylfuran-2,5-dione] | 106 ± 4 % | 105 ± 2 % | 102 ± 2% | 100 ± 3% | 101 ± 7% | 102 ± 5% | 99 ± 6% | 95 ± 9% | 86 ± 8 % | 221 ± 102 pg/mL | 227 ± 94 pg/mL | 225 ± 68 pg/mL | 215 ± 56 pg/mL | 96 µg/mL (≈ 390 µM) | 100 ± 26 pg/mL | 102 ± 30 pg/mL | 90 ± 4 pg/mL | 94 ± 19 pg/mL | 106 ± 5 pg/mL | 3.44 ± 0.31 ng/mL | TNF-α (ng/mL) secretion (TNF-α [4]; 1 μg/mL): 4.06 ± 1.14 ng/mL; TNF-α (ng/mL) secretion (TNF-α [4]; 5 μg/mL): 4.67 ± 1.09 ng/mL; TNF-α (ng/mL) secretion (TNF-α [4]; 10 μg/mL): 3.63 ± 0.58 ng/mL
COC(=O)/C(CC(C)C)=C(\C(=O)OC)c1ccc(O)cc1 [Compound 6, Dimethyl 2-(4-hydroxyphenyl)-3-isobutylmaleate] | 108 ± 6% | 107 ± 7% | 106 ± 9% | 102 ± 10% | 100 ± 6% | 99 ± 7% | 102 ± 6% | 95 ± 8% | 96 ± 11% | 235 ± 106 pg/mL | 215 ± 89 pg/mL | 209 ± 89 pg/mL | 179 ± 91 pg/mL | 25 µg/mL (≈ 85.5 µM) | 100 ± 34 pg/mL | 114 ± 41 pg/mL | 90 ± 14 pg/mL | 110 ± 22 pg/mL | 116 ± 4 pg/mL | 3.61 ± 0.22 ng/mL | TNF-α (ng/mL) secretion (TNF-α [4]; 1 μg/mL): 3.70 ± 0.50 ng/mL; TNF-α (ng/mL) secretion (TNF-α [4]; 5 μg/mL): 3.80 ± 0.53 ng/mL; TNF-α (ng/mL) secretion (TNF-α [4]; 10 μg/mL): 3.32 ± 0.30 ng/mL
